SMILES strings stand for the structures. Where two headings read alike, the source gives them in different places.

One assay concerns the target T1, MAT2A homodimer (Homo sapiens, UniProt P31153).
T1 construct: inferred from the Ni sepharose purification and imidazole elution; made in house; host or cells: SF9 insect cells, recombinant baculovirus (Bac to Bac, pFASTBAC1)
The experiment in a line: MAT2A biochemical assay (liberated phosphate, PiColorLock Gold). The settings on record: Table 5a; MAT2A biochemical assay; read-out: Enzyme Inhibition. Summed up:
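Baculovirus/Sf9-expressed, Ni-purified MAT2A homodimer preincubated with compound 60 min at 25 °C, then reacted 60 min at 25 °C with substrate mix of 500 μM ATP and 400 μM L-methionine, pH 7.0 (mix, not final levels). Phosphate released with SAM measured by PiColorLock Gold against phosphate standard curve.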

Assay [1] deals with SAM in HCT116 MTAP-deleted cells. Briefly: Cellular assay of target engagement (SAM), LC-MS/MS. The settings on record: 72 h, read-out: Cell 72 h SAM Inhibition (MTAP −/−). In kind it is cell-based, human. The method, boiled down:
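HCT116 cells with MTAP deleted were treated with compound for 72 h at 37°C/5% CO2. After quenching lysis in cold 80% methanol with 1 M acetic acid, SAM was quantified by LC-MS/MS against a d3-SAM internal standard.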

The next assay concerns HCT116 MTAP-/-. The experiment in a line: Inhibition of cellular proliferation (Cell Titer Glo), HCT116 MTAP-/-. In kind it is cell-based, human. The settings on record: 4 days, read-out: 4 Day Relative Growth Inhibition (MTAP −/−). The method, boiled down: (§1)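 Isogenic HCT116 MTAP+/+ and MTAP−/− cells were plated, treated with MAT2A inhibitor after 24 h, and incubated 4 days at 37 °C. Proliferation was read by CellTiter-Glo ATP luminescence, blank-subtracted and normalized to 0.2% DMSO control.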
(Cellular ATP, detected with luciferase, serves as a proxy for viable cell number.)

The next assay concerns HCT116 MTAP+/+. Briefly: Inhibition of cellular proliferation (Cell Titer Glo), HCT116 MTAP+/+. In kind it is cell-based. The settings on record: Homo sapiens, HCT-116, 96 h, Table 5a, 4 days, read-out: 4 Day Relative Growth Inhibition (MTAP +/+). The method, boiled down: as §1
Where [2] appears, read: Homo sapiens, HCT-116, Table 5a.
The mark [3] stands for this setting: Homo sapiens, HCT-116, 96 h, Table 5a.
[4] abbreviates: Table 6, select pairs of compounds.

T1 sequence (P31153 whole entry): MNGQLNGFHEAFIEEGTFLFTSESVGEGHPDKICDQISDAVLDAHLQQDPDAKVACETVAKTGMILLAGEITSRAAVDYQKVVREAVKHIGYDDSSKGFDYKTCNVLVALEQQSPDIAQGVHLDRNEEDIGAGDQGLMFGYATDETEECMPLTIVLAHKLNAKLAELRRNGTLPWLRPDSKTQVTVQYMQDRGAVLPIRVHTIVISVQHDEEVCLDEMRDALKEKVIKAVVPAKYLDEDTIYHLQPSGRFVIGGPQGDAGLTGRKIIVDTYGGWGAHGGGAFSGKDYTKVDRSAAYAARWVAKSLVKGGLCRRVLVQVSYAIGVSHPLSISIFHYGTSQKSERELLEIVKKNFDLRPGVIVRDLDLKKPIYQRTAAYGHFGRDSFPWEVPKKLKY

Regarding `CO[C@H]1CC[C@H](N2C(=O)N(c3ccc4nn(C)cc4c3)Cc3ccc(OCC(F)F)nc32)CC1` [Example 429, 7-(2,2-difluoroethoxy)-1-(trans-4-methoxycyclohexyl)-3-(2-methyl-2H-indazol-5-yl)-3,4-dihydropyrido[2,3-d]pyrimidin-2(1H)-one], the IC50 is under 100 nM on MAT2A homodimer, 100 to 1000 nM in assay [1] (setting [2]), 100 to 1000 nM with HCT116 MTAP-/- (setting [3]) and over 1000 nM in the assay on HCT116 MTAP+/+.
For the molecule `Cn1cc2cc(N3Cc4ncc(NCC(F)(F)F)nc4N(c4ccc(OC(F)F)cc4)C3=O)ccc2n1` [Example 414, 1-(4-(difluoromethoxy)phenyl)-3-(2-methyl-2H-indazol-5-yl)-7-((2,2,2-trifluoroethyl)amino)-3,4-dihydropteridin-2(1H)-one], the IC50 at MAT2A homodimer was under 100 nM; in assay [1] (setting [2]), under 100 nM; with HCT116 MTAP-/- (setting [3]), under 100 nM; in the assay on HCT116 MTAP+/+ it was over 1000 nM.
On to `Cn1cc2cc(N3Cc4ccc(NCC(F)(F)F)nc4N(c4ccc(OC(F)F)cc4)C3=O)ccc2n1` [Example 264, 1-(4-(difluoromethoxy)phenyl)-3-(2-methyl-2H-indazol-5-yl)-7-((2,2,2-trifluoroethyl)amino)-3,4-dihydropyrido[2,3-d]pyrimidin-2(1H)-one], for which the IC50 at MAT2A homodimer is under 100 nM; in assay [1] (setting [2]), under 100 nM; in assay [1] (setting [4]), under 100 nM; in the assay on HCT116 MTAP-/- (setting [3]), under 100 nM; with HCT116 MTAP-/- (setting [4]) it was under 100 nM; in the assay on HCT116 MTAP+/+, over 1000 nM.

For the origin of these results see patent publication US20220098203A1 (priority 2018, published 2022).
